The values below come from ChEMBL document CHEMBL1128481, “Synthesis, structure elucidation, and biochemical evaluation of 7 alpha- and 7 beta-arylaliphatic-substituted androst-4-ene-3,17-diones as inhibitors of aromatase” (J Med Chem, 1995).

The target in assay [1] is T1, Aromatase (Homo sapiens, UniProt P11511).
T1 sequence (P11511 whole entry): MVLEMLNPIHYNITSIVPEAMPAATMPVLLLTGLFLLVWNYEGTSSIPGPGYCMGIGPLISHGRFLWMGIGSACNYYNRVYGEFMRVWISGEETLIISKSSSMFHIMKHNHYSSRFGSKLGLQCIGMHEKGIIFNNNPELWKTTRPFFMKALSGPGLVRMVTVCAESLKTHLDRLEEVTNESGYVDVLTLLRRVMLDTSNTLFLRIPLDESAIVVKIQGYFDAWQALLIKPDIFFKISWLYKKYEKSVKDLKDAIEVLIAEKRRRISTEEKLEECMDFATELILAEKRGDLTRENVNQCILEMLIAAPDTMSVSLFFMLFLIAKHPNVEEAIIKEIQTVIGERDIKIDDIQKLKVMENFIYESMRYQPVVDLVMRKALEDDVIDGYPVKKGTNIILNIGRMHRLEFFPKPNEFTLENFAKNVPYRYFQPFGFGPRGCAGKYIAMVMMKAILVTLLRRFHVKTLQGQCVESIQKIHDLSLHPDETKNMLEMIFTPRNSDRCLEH
Description: Inhibition of human placental Cytochrome P450 19A1 at 250 nM

The target in assay [2] is T1, Aromatase. In words: Inhibition of human placental Cytochrome P450 19A1 at 100 nM.
Assay [3] concerns the target T1, Aromatase. This is another data set of the same source.
Description: Apparent binding affinity for human placental Cytochrome P450 19A1
Assay [4] concerns the target T1, Aromatase. The source holds these as a separate data set.

Molecule `C[C@]12CCC(=O)C=C1C[C@@H](Sc1ccc(N)cc1)[C@@H]1[C@@H]2CC[C@]2(C)C(=O)CC[C@@H]12` displayed an inhibition at 0.25 µM against Aromatase [1] of 83.9%. The same molecule showed an inhibition at 0.1 µM on Aromatase [2] of 70.6%.

On to `C[C@]12CC[C@H]3[C@@H]([C@H](CCc4ccccc4)CC4=CC(=O)CC[C@@]43C)[C@@H]1CC[C@@H]2O`, for which the affinity on Aromatase [3] corresponds to a Ki of 36 nM. On Aromatase [4], this molecule yielded an inhibition at 0.1 µM of 45.8%. At Aromatase [1], the inhibition at 0.25 µM is 56.7%.

Consider `C[C@]12CC[C@H]3[C@@H]([C@H](Cc4ccccc4)CC4=CC(=O)CC[C@@]43C)[C@@H]1CC[C@@H]2O`, for which affinity on Aromatase [3] was put at a Ki of 39.5 nM. On Aromatase [4], this molecule yielded an inhibition at 0.1 µM of 59.4%. The molecule also registered an inhibition at 0.25 µM against Aromatase [1] of 72.5%.

`CC12CCC3C(C1CCC2=O)[C@H](Cc1ccccc1)CC1=CC(=O)CCC13C` (stereo not given in full): on Aromatase [3], affinity was put at a Ki of 18.9 nM. Testing at 0.1 µM against Aromatase [4] gave an inhibition of 64.3%. The inhibition at 0.25 µM at Aromatase [1] was found to be 81.5%.

`C[C@]12CCC(=O)C=C1C[C@H](CCc1ccccc1)[C@@H]1[C@@H]2CC[C@]2(C)C(=O)CC[C@@H]12` showed an inhibition constant (Ki) on Aromatase [3] of 40.2 nM. For the same molecule, the inhibition at 0.1 µM at Aromatase [4] came out at 55.7%. Besides, testing at 0.25 µM against Aromatase [1] gave an inhibition of 67.8%.

For `CC12CCC3C(C1CCC2=O)[C@H](CCc1ccccc1)CC1=CC(=O)CCC13C` (stereo not given in full), at Aromatase [3], the Ki was 13.1 nM. The same molecule had an inhibition at 0.1 µM on Aromatase [4] of 66.1%. Further, at 0.25 µM the inhibition against Aromatase [1] was 81.6%.

`C[C@]12CCC(=O)C=C1C[C@H](Cc1ccccc1)[C@@H]1[C@@H]2CC[C@]2(C)C(=O)CC[C@@H]12` had a Ki at Aromatase [3] of 44.5 nM. Further, on Aromatase [4], the inhibition at 0.1 µM came to 46.7%. Also, on Aromatase [1], 0.25 µM produced 68.9% inhibition.
